The target of one assay is CSK protein (Homo sapiens (Human), UniProt P41240). In words: CSK Inhibition Assay. It is filed as biochemical. Summed up: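 Compounds, 11-point 1:3 dilutions in DMSO, were preincubated 30 min at RT with CSK and fluorescent peptide substrate, then the reaction was started with ATP (4 μM solution) and run 90 min at 25 °C before EDTA stop. Phospho-peptide conversion was read by mobility-shift separation (Caliper EZ Reader II) and converted to % inhibition for IC50.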

The target in a further assay is LCK protein (Homo sapiens (Human), UniProt P06239). The assay is described as follows: LCK Inhibition Assay. It is filed as biochemical. Summed up:
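Recombinant LCK (0.50 nM) preincubated 30 min at RT with compound and FLPeptide4 (2 μM) in 50 mM HEPES pH 7.5, 10 mM MgCl2, Brij-35, DTT, BSA; reaction started with ATP (400 μM solution added), run 90 min at 25 °C, EDTA-stopped. Phospho/non-phospho peptide separated by mobility shift; IC50 from % inhibition of conversion, 11-point 1:3 series.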

pIC50: −log10 of the molar value. Some results are limits rather than exact numbers.

Sequence of CSK protein (P41240 whole entry): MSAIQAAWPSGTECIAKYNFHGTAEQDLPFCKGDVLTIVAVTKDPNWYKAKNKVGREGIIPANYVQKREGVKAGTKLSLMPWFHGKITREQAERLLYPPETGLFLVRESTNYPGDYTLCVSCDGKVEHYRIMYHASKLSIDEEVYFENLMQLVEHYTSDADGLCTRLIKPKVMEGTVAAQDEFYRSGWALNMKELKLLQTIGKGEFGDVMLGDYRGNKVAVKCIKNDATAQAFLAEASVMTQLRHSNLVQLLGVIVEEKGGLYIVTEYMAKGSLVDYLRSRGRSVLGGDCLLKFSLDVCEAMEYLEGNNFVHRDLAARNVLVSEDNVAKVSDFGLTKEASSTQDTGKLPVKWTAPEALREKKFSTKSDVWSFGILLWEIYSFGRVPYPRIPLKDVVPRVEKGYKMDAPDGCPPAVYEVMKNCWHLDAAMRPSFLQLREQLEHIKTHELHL
Sequence of LCK protein (P06239 whole entry): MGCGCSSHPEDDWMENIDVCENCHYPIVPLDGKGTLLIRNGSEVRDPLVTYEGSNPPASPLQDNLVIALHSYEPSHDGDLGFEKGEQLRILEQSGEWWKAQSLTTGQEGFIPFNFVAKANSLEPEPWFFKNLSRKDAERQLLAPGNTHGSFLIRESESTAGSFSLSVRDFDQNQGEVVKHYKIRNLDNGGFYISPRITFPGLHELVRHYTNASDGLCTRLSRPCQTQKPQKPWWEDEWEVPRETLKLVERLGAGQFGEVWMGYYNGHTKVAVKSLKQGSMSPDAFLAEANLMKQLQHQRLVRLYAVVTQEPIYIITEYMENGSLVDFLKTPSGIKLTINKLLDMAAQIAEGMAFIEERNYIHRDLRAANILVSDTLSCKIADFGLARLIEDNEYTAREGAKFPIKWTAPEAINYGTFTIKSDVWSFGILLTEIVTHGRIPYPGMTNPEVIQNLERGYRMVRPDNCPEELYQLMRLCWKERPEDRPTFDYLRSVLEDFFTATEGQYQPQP

Take `Nc1ncc(-c2nc(-c3cccc(NS(=O)(=O)c4c(F)cccc4F)c3F)c(-c3ccnc(N)n3)s2)cn1` [compound 6]: the pIC50 was 7.70 at CSK protein and 6.00 to 7.00 against LCK protein.
Regarding `CCOc1ncc(-c2nc(-c3cccc(NS(=O)(=O)c4c(F)cccc4F)c3F)c(-c3ccnc(N)n3)s2)cn1` [compound 7], the results for the pIC50 on CSK protein and against LCK protein were 6.51 and < 6.00, respectively.
On to `Nc1nccc(-c2sc(-c3ccccc3)nc2-c2cncc(NS(=O)(=O)c3c(F)cccc3F)c2)n1` [compound 25], for which the pIC50 was 6.63 against CSK protein and < 6.00 against LCK protein.
Turning to `COc1ccc(-c2nc(-c3cccc(NS(=O)(=O)c4c(F)cccc4F)c3F)c(-c3ccnc(N)n3)s2)cn1` [compound 27], the pIC50 against CSK protein was 7.57; against LCK protein, 6.00 to 7.00.
As for `Nc1nccc(-c2sc(-c3ccc(=O)[nH]c3)nc2-c2cccc(NS(=O)(=O)c3c(F)cccc3F)c2F)n1` [compound 28], the pIC50 against CSK protein was 7.20; against LCK protein, < 6.00.
Turning to `CNc1nccc(-c2sc(-c3ccc(F)cn3)nc2-c2cccc(NS(=O)(=O)c3c(F)cccc3F)c2F)n1` [compound 34], the pIC50 was 7.37 at CSK protein and < 6.00 at LCK protein.
For `Cc1ccc(F)c(S(=O)(=O)Nc2cccc(-c3nc(-c4ccccc4)sc3-c3ccnc(N)n3)c2F)c1F` [compound 36], the pIC50 on CSK protein was 7.65; against LCK protein, < 6.00.
On to `O=S(=O)(Nc1cccc(-c2nc(-c3ccccc3)sc2-c2ccnc(Nc3cncnc3)n2)c1F)c1c(F)cccc1F` [compound 38], for which the pIC50 against CSK protein was 7.83; at LCK protein, 6.00 to 7.00.
Turning to `Nc1nccc(-c2sc(-c3cnccn3)nc2-c2cccc(NS(=O)(=O)c3c(F)cccc3F)c2F)n1` [compound 39], the pIC50 on CSK protein is 7.47; against LCK protein, < 6.00.
With `CNC(=O)N[C@@H](C)CNc1nccc(-c2sc(-c3ccccc3)nc2-c2cccc(NS(=O)(=O)c3c(F)cccc3F)c2F)n1` [compound 45], the figures for the pIC50 against CSK protein and against LCK protein were 7.38 and < 6.00, respectively.
Taken in the same sequence, the figures for `Nc1nccc(-c2sc(-c3cncc(C4CC4)c3)nc2-c2cccc(NS(=O)(=O)c3c(F)cccc3F)c2F)n1` [compound 48] were 7.12 and < 6.00.
With `COc1ccc(F)c(S(=O)(=O)Nc2cccc(-c3nc(-c4cncc(F)c4)sc3-c3ccnc(N)n3)c2F)c1F` [compound 50], the pIC50 was 7.12 on CSK protein and < 6.00 against LCK protein.
Consider `Nc1nccc(-c2c(-c3cccc(NS(=O)(=O)c4c(F)cccc4F)c3F)nc3ccccn23)n1` [compound 90], for which the pIC50 is 7.11 at CSK protein and < 6.00 on LCK protein.
On to `COc1ccn2c(-c3ccnc(N)n3)c(-c3cccc(NS(=O)(=O)c4c(F)cccc4F)c3F)nc2c1` [compound 91], for which the pIC50 on CSK protein is 7.28; at LCK protein, < 6.00.
In the case of `CN1CCN(c2ccc(Nc3nccc(-c4cn(C5CCCCC5)nc4-c4cccc(NS(=O)(=O)c5c(F)cccc5F)c4F)n3)cn2)CC1` [compound 108], the values for the pIC50 at CSK protein and at LCK protein were 8.60 and > 7.00, respectively.
Taken in the same sequence, the figures for `Nc1nccc(-c2sc(N3CCCC3=O)nc2-c2cccc(NS(=O)(=O)c3c(F)cccc3F)c2F)n1` [compound 112] were 7.52 and < 6.00.
For the molecule `CC(C)(C)c1nc(-c2cccc(NS(=O)(=O)c3c(F)cccc3F)c2F)c(-c2ccnc(Nc3ccc(N4CCOCC4)nc3)n2)s1` [compound 118], the pIC50 at CSK protein is 8.55; against LCK protein, > 7.00.
Regarding `CCN(CC)c1nc(-c2cccc(NS(=O)(=O)c3c(F)cccc3F)c2F)c(-c2ccnc(NC)n2)s1` [compound 153], the pIC50 on CSK protein was 8.13; on LCK protein, 6.00 to 7.00.
Turning to `CNc1nccc(-c2sc(-c3cncc(F)c3)nc2-c2cc(C)cc(NS(=O)(=O)c3c(F)cccc3F)c2F)n1` [compound 154], the pIC50 on CSK protein was 7.90; against LCK protein it was 6.00 to 7.00.

A word on the pIC50: it is the negative decadic logarithm of the IC50, by convention in mol/L. Higher therefore signals a small IC50.

Values taken from US12427146B2, “C-terminal SRC kinase inhibitors” (INVENTISBIO CO., LTD., priority 2018, dated 2025).
